Results from patent publication US12636368B2, “Ionizable lipids for nucleic acid delivery” (Global Life Sciences Solutions Canada ULC, priority 2019, dated 2026).
Like-named read-outs stand apart in the source and are kept apart here.

Key:
[1] = TNS assay, surface pKa of lipid nanoparticles; type: physicochemical
Protocol: In embodiments of the invention, the experimental pKa of formulated lipid nanoparticles comprising lipids in Table 1 is calculated using the 2-(p-toluidinyl)naphthalene-6-sulfonic acid (TNS) assay. The procedure for the TNS assay is described in Example 25.
The pKa of each cationic lipid was determined in lipid nanoparticles using an assay based on fluorescence of 6-(p-Toluidino)-2-naphthalenesulfonic acid sodium salt (TNS, Sigma Aldrich), which is a fluorescent probe for the conformational state of proteins5. Empty lipid nanoparticles comprising ionizable lipid in LM02 composition in distilled water at a concentration of 3.125 mM total lipid are formulated using NanoAssemblr® Spark™, and were then was characterized for LNP quality on the Zetasizer™ using a 30× dilution with 1×PBS in the low volume cuvette. Lipid nanoparticles were further diluted 4× using distilled water to 0.781 mM total lipid. TNS was prepared as a 25 μM stock solution in distilled water. Then 6.4 μL of diluted LNP samples of 0.781 mM total lipid were mixed with 10 μL of diluted TNS to a final volume of 250 μL with buffer containing 10 mM HEPES, 10 mM MES, 10 mM NH4OAc and 130 mM NaCl where the pH ranged from 3 to 9 in 0.5 pH increments.
Samples were mixed thoroughly, and the fluorescence intensity was measured at room temperature in a BioTek™ Synergy™ H1 Hybrid Multi-Mode Monochromator™ Fluorescence Microplate Reader using excitation and emission wavelengths of 321 nm and 445 nm respectively. A sigmoidal best fit analysis was applied to the fluorescence data using GraphPad Prism™ software, and the pKa was measured as the pH at half-maximal fluorescence intensity.

[2] = LNP size and PDI by dynamic light scattering; type: physicochemical
Protocol: After the lipid particles were made as described supra, particle size (hydrodynamic diameter of the particles) was determined by Dynamic Light Scattering (DLS) using a ZetaSizer™ Nano ZS™ (Malvern Instruments, UK). He/Ne laser tuned to 633 nm wavelength was used as the light source. Data were measured from the scattered intensity data conducted in backscattering detection mode (measurement angle=173). Measurements were an average of 10 runs of two cycles each per sample. Z-Average size was reported as the particle size, and is defined as the harmonic intensity averaged particle diameter.
(§1) Physical characteristics of lipid nanoparticle (LNP) compositions comprising compounds according to Formula (I) and that were manufactured on the NanoAssemblr® Spark and Benchtop, are shown in Tables 6 and 7 below. Size, size variation of the LNP (PDI), encapsulation efficiency, and pKa are shown. The physical characteristics of these LNP are important from a standpoint of stability, biodistribution, and cell membrane crossing. There was good encapsulation in all the formulations, with polydispersity (PDI) under 0.3. Size and PDI were measured using dynamic light scattering techniques, and nucleic acid encapsulation efficiency was calculated from a modified Quant-iT RiboGreen RNA assay.

[3] = Nucleic acid encapsulation efficiency by RiboGreen assay; type: physicochemical
Protocol: Messenger RNA or plasmid NAT was diluted using sodium acetate buffer to the required concentration. Lipid nucleic acid particle samples were then prepared by running both fluids using the NanoAssemblr® Spark instrument. […] The lipid nucleic acid particles made in the instrument were immediately diluted down with 48 μL Ca and Mg free 1×PBS at pH 7.4 in the aqueous output well. These nucleic acid lipid particles were immediately collected into microcentrifuge tubes containing 96 μL of Ca and Mg free 1×PBS at pH 7.4. Encapsulation efficiency was measured by a modified Ribogreen™ assay (Quanti-iT RiboGreen™ RNA assay kit, Fisher). Observed particle attributes were generally sized from 60-200 nm for mRNA, depending on lipid composition and method of production.
as §1

[4] = test system: isolated primary human T cells; test: GFP mRNA-LNP transfection of primary human T cells, flow cytometry; type: cell-based; details: for GFP Protein expression score: Human T cell: Table 8, star score, legend not given
Protocol: Reagents were from Stemcell Technologies unless otherwise stated. Tcells were isolated from a single donor. At 48 h following lipid particle mRNA exposure, the treated T cells were harvested by transferring the cell suspensions to pre-labeled 1.5 mL tubes and centrifuged 300×g at 4 degrees C. for 10 minutes. Supernatant was removed and the pellet resuspended in PBS. An amount of 0.5 ul of BD Horizon™ Fixable Viability Stain 575V™ (BD Biosciences), was added, and the mixture incubated in the dark for 10 minutes at RT. This stain binds to amines.
The cells were centrifuged again as before, then washed twice with 1 mL of stain buffer (BSA, BD Pharminigen), and the washed pellet was diluted in 100 μl BSA. The following antibodies were added to each tube of treated cells in 2 μl volumes: CD25, CD8, CD4, (PerCP-Cy™ 5.5 Mouse Anti Human CD25, BV786 Mouse Anti-Human CD8 Clone RPA-T8, APC-Cy™7 Mouse Anti-Human CD4 Clone SK3 (all from BD Pharmingen) with the exception of the controls: in the eGFP only sample and viability control, no antibody was added. In the single stain compensation tubes, only one antibody per tube was added.
The tubes were incubated at 4 degrees C. for 30 min, whereupon […] of stain buffer was added, and the cells were centrifuged again. Cells were washed once with 1 mL of stain buffer and spun down again as in step one. Cell pellets were resuspended in 1 mL of stain buffer and added to pre-labeled flow tubes with cell strainer caps (Corning Falcon). […]
GFP MFI was measured by flow cytometry 48 hours after LNP addition. T cells were isolated from whole blood using a negative isolation procedure (EasySep™ Human T Cell Isolation Kit, Stemcell Technologies). T cells were dosed with mRNA-LNPs 3 days after activation with 500 ng of encapsulated mRNA per 125,000 cells. The LNP were CT10 compositions with an N/P of 8. Transfection efficiency (upper graph) and MFI (lower graph) were measured by flow cytometry 48 h after LNP addition.

[5] = Table 1, formulated lipid nanoparticles, TNS assay, read-out: Exp. pKa
[6] = Table 6, GFP-encoded LNPs, CT10, N/P 8
[7] = Table 7, EPO mRNA LNPs, LM02, N/P 6

| SMILES | pKa [1, 5] | pKa ([1]; Table 8, read-out: Exp.pKa) | Diameter (Z. ave, nm) [2, 7] [nm] | Polydispersity Index (PDI) [2, 7] | Encapsulation Efficiency (%) [3, 7] [%] | other results |
| --- | --- | --- | --- | --- | --- | --- |
| CCCCC/C=C\C/C=C\CCCCCCCC(=O)O[C@@H]1[C@@H](OC(=O)CCCCCCC/C=C\C/C=C\CCCCC)CO[C@@H]1COC(=O)CCN(C)C (racemic) [PNI 321] | 5.62 | 5.62 | 60.0 | 0.09 | 94.9 | Diameter (Z. ave, nm) [2, 6]: 68.6 nm; Polydispersity Index (PDI) [2, 6]: 0.07; Encapsulation Efficiency (%) [3, 6]: 92.4% |
| CCCCC/C=C\C/C=C\CCCCCCCC(=O)O[C@H]1COC(COC(=O)C23CCN(CC2)CC3)[C@@H]1OC(=O)CCCCCCC/C=C\C/C=C\CCCCC (stereo in doubt) [PNI 573] | 7.79 | – | – | – | – | – |
| CCCCC/C=C\C/C=C\CCCCCCCC(=O)O[C@@H]1[C@@H](OC(=O)CCCCCCC/C=C\C/C=C\CCCCC)CO[C@@H]1COC(=O)Cc1cn(C)cn1 (racemic) [PNI 336] | 4.57 | 4.57 | 64.3 | 0.06 | 89.8 | Diameter (Z. ave, nm) [2, 6]: 79.6 nm; Polydispersity Index (PDI) [2, 6]: 0.07; Encapsulation Efficiency (%) [3, 6]: 86.6% |
| CCCCCCCCC1CC1CCCCCCCC(=O)O[C@@H]1[C@@H](OC(=O)CCCCCCCC2CC2CCCCCCCC)CO[C@@H]1COC(=O)CCN(C)C (mixture of isomers) [PNI 342] | 6.11 | 6.11 | 58.2 | 0.04 | 97.2 | – |
| CCCCCCCCCCCCCC(=O)O[C@@H]1[C@@H](OC(=O)CCCCCCCCCCCCC)CO[C@@H]1COC(=O)CCN(C)C [PNI 344] | 6.93 | 6.93 | – | – | – | – |
| CCCCCC/C=C\COC(=O)CCCCCCC(=O)O[C@@H]1[C@@H](OC(=O)CCCCCCC(=O)OC/C=C\CCCCCC)CO[C@@H]1COC(=O)CCN(C)C [PNI 532] | 5.97 | 5.97 | 144.3 | 0.15 | 37.3 | – |
| CCCCCCCCCCCCCC(=O)O[C@@H]1[C@@H](OC(=O)CCCCCCCCCCCCC)CO[C@@H]1COC(=O)CCCCN(C)C (racemic) [PNI 120] | 7.71 | 7.7 | – | – | – | GFP Protein expression score: Human T cell [4]: Toxic |
| CC/C=C\CC1C(CC(=O)OCCC(CCCCCCCC)OC(=O)C(CCCCCC)CCCCCCCC)CCC1OC(=O)C1(C)CCN(C)CC1 (stereo not shown) [PNI-565] | – | – | – | – | – | amount of protein produced (MFIs) compared with MC3 [4]: better than MC3 |
| CCCCC/C=C\C/C=C\CCCCCCCC(=O)O[C@@H]1[C@@H](OC(=O)CCCCCCC/C=C\C/C=C\CCCCC)CO[C@@H]1COC(=O)CCCCN(C)C (racemic) [PNI 122] | 7.45 | 7.45 | 102.4 | 0.15 | 99.3 | GFP Protein expression score: Human T cell [4]: Toxic |
| CCCCCCCCCCCC(=O)O[C@@H]1[C@@H](OC(=O)CCCCCCCCCCC)CO[C@@H]1COC(=O)CCN(C)C (racemic) [PNI 534] | 6.42 | 5.97 | 75.0 | 0.15 | 89.4 | Diameter (Z. ave, nm) [2, 6]: 107.1 nm; Polydispersity Index (PDI) [2, 6]: 0.29; Encapsulation Efficiency (%) [3, 6]: 49.3% |

Now from value to compound, other results behind:

| pKa [1, 5] | pKa ([1]; Table 8, read-out: Exp.pKa) | Diameter (Z. ave, nm) [2, 7] [nm] | Polydispersity Index (PDI) [2, 7] | Encapsulation Efficiency (%) [3, 7] [%] | SMILES | other results |
| --- | --- | --- | --- | --- | --- | --- |
| 4.24 | – | – | – | – | CCCCCCCCC1CC1CCCCCCCC(=O)O[C@@H]1[C@@H](OC(=O)CCCCCCCC2CC2CCCCCCCC)CO[C@@H]1COC(=O)C1CCN(C2CC2)CC1 (stereo in doubt) [PNI 576] | – |
| 5.69 | – | – | – | – | CCCCCCCCC(CCCCCC)C(=O)O[C@@H]1[C@@H](OC(=O)C(CCCCCC)CCCCCCCC)CO[C@@H]1COC(=O)CCCN(C)C (stereo in doubt) [PNI 580] | – |
| 6.46 | 6.46 | 73.8 | 0.06 | 97.1 | CCCCCCCCC1CC1CCCCCCCC(=O)O[C@@H]1[C@@H](OC(=O)CCCCCCCC2CC2CCCCCCCC)CO[C@@H]1COC(=O)C1(C)CCN(C)CC1 (mixture of isomers) [PNI 541] | amount of protein produced (MFIs) compared with MC3 [4]: better than MC3; protein expression (GFP MFI) compared with MC3 ([4]; FIG. 5, CT10, N/P 8, 500 ng mRNA per 125,000 cells, 3 days after activation, 48 h): higher levels of protein expression than MC3; amount of protein produced (MFI) in human T cells compared with MC3 ([4]; summary): better than MC3; Diameter (Z. ave, nm) [2, 6]: 109.4 nm; Polydispersity Index (PDI) [2, 6]: 0.28; Encapsulation Efficiency (%) [3, 6]: 73.5% |
| 6.79 | 6.79 | 67.0 | 0.11 | 98.7 | CCCCC/C=C\C/C=C\CCCCCCCC(=O)O[C@@H]1[C@@H](OC(=O)CCCCCCC/C=C\C/C=C\CCCCC)CO[C@@H]1COC(=O)CC1CCN(C)C1 (mixture of isomers) [PNI 538] | – |
| 5.51 | – | – | – | – | CCCCC/C=C\C/C=C\CCCCCCCC(=O)O[C@H]1COC(COC(=O)C2CCCN(C)C2)[C@@H]1OC(=O)CCCCCCC/C=C\C/C=C\CCCCC (stereo in doubt) [PNI 575] | – |
| 5.32 | – | – | – | – | CCCCCCCCC(CCCCCC)C(=O)O[C@@H]1[C@@H](OC(=O)C(CCCCCC)CCCCCCCC)CO[C@@H]1COC(=O)C1(C)CCN(C)CC1 (stereo in doubt) [PNI 579] | – |
| 6.66 | – | – | – | – | CCCCC/C=C\C/C=C\CCCCCCCC(=O)O[C@H]1COC(COC(=O)CN2CCN(C)CC2)[C@@H]1OC(=O)CCCCCCC/C=C\C/C=C\CCCCC (mixture of isomers) [PNI 574] | – |
| 6.45 | – | – | – | – | CCCCCCCCC1CC1CCCCCCCC(=O)O[C@@H]1[C@@H](OC(=O)CCCCCCCC2CC2CCCCCCCC)CO[C@@H]1COC(=O)C1CCN(CC)CC1 (stereo in doubt) [PNI 577] | – |
| 5.87 | – | – | – | – | CCCCCCCCC1CC1CCCCCCCC(=O)O[C@@H]1[C@@H](OC(=O)CCCCCCCC2CC2CCCCCCCC)CO[C@@H]1COC(=O)CC1CCCCN1C (stereo in doubt) [PNI 578] | – |
| 4.99 | 4.99 | 54.2 | 0.11 | 82.2 | CCCCCCCCC(CCCCCC)C(=O)O[C@@H]1[C@@H](OC(=O)C(CCCCCC)CCCCCCCC)CO[C@@H]1COC(=O)CCN(C)C (mixture of isomers) [PNI 535] | GFP Protein expression score: Human T cell [4]: Not Active; Diameter (Z. ave, nm) [2, 6]: 133.1 nm; Polydispersity Index (PDI) [2, 6]: 0.07; Encapsulation Efficiency (%) [3, 6]: 91.7% |
